Source: ChEMBL document CHEMBL4765364, “Synthesis, antibacterial and antifungal activity of new 3-biphenyl-3H-Imidazo[1,2-a]azepin-1-ium bromides” (Eur J Med Chem, 2020)
Converted amounts (≈) assume the structure as drawn. The source made the active and inactive calls. The calls are words filed in the database; no cut-off is given here.

What was measured:
[1] = test system: Cryptococcus neoformans; experiment: Antifungal activity against Cryptococcus neoformans ATCC 208821 at 32 ug/ml measured after 24 hrs by resazurin dye based assay; assay type: functional
[2] = test system: Klebsiella pneumoniae; experiment: Antibacterial activity against Klebsiella pneumoniae ATCC 700603 at 32 ug/ml measured after 18 hrs; assay type: functional
[3] = test system: Pseudomonas aeruginosa; experiment: Antibacterial activity against Pseudomonas aeruginosa ATCC 27853 at 32 ug/ml measured after 18 hrs; assay type: functional
[4] = test system: Candida albicans; experiment: Antifungal activity against Candida albicans ATCC 90028 measured after 24 hrs by resazurin dye based assay; assay type: functional
[5] = test system: Klebsiella pneumoniae; experiment: Antibacterial activity against Klebsiella pneumoniae ATCC 700603 measured after 18 hrs; assay type: functional
[6] = test system: Pseudomonas aeruginosa; experiment: Antibacterial activity against Pseudomonas aeruginosa ATCC 27853 measured after 18 hrs; assay type: functional
[7] = test system: Staphylococcus aureus; experiment: Antibacterial activity against methicillin resistant Staphylococcus aureus ATCC 43300 at 32 ug/ml measured after 18 hrs; assay type: functional
[8] = test system: Cryptococcus neoformans; experiment: Antifungal activity against Cryptococcus neoformans ATCC 208821 measured after 24 hrs by resazurin dye based assay; assay type: functional
[9] = test system: Escherichia coli; experiment: Antibacterial activity against Escherichia coli ATCC 25922 at 32 ug/ml measured after 18 hrs; assay type: functional
[10] = test system: Acinetobacter baumannii; experiment: Antibacterial activity against Acinetobacter baumannii ATCC 19606 measured after 18 hrs; assay type: functional; conditions: ATCC 19606 = CIP 70.34 = JCM 6841
[11] = test system: Candida albicans; experiment: Antifungal activity against Candida albicans ATCC 90028 at 32 ug/ml measured after 24 hrs by resazurin dye based assay; assay type: functional
[12] = Cytotoxicity against HEK293 cells measured after 20 hrs by resazurin dye based fluorescence assay; assay type: cell-based; conditions: human
[13] = test system: Acinetobacter baumannii; experiment: Antibacterial activity against Acinetobacter baumannii ATCC 19606 at 32 ug/ml measured after 18 hrs; assay type: functional, ATCC 19606 = CIP 70.34 = JCM 6841
[14] = test system: Escherichia coli; experiment: Antibacterial activity against Escherichia coli ATCC 25922 measured after 18 hrs; assay type: functional
[15] = test system: Staphylococcus aureus; experiment: Antibacterial activity against methicillin resistant Staphylococcus aureus ATCC 43300 measured after 18 hrs; assay type: functional
[16] = ATCC 19606 = CIP 70.34 = JCM 6841, dose 32.0 µg/ml

Compound | Activity ([1]; dose 32 µg/ml) | Activity ([2]; dose 32 µg/ml) | Activity ([3]; dose 32 µg/ml) | MIC [4] | MIC [5] | MIC [6] | Activity ([7]; dose 32 µg/ml) | MIC [8] | Activity ([9]; dose 32 µg/ml) | MIC [10] | Activity ([11]; dose 32 µg/ml) | CC50 at 20 h [12] | Activity ([13]; dose 32 µg/ml) | MIC [14] | MIC [15] | other results
COc1ccc([N+]2=C3CCCCCN3C(O)(c3ccc(-c4ccccc4)cc3)C2)c(OC)c1.[Br-] (centres undefined) | >80% | >80% | >80% | > 32 µg/mL | > 32 µg/mL | 32 µg/mL | >80% | 32 µg/mL | >80% | > 32 µg/mL | >80% | 2.4 µg/mL | >80% | > 32 µg/mL | 8 µg/mL | 
COLISTIN |  |  |  |  | 0.25 µg/mL | 0.25 µg/mL |  |  |  | 0.25 µg/mL |  |  |  | 0.125 µg/mL |  | 
COc1ccccc1[N+]1=C2CCCCCN2C(O)(c2ccc(-c3ccccc3)cc2)C1.[Br-] (centres undefined) | >80% | >80% | >80% | 32 µg/mL | > 32 µg/mL | > 32 µg/mL | >80% | 8 µg/mL | >80% | > 32 µg/mL | >80% | 2.2 µg/mL | >80% | > 32 µg/mL | 16 µg/mL | 
CCOc1ccc([N+]2=C3CCCCCN3C(O)(c3ccc(-c4ccccc4)cc3)C2)cc1.[Br-] (centres undefined) | >80% | >80% | >80% | > 32 µg/mL | > 32 µg/mL | > 32 µg/mL | >80% | 32 µg/mL | >80% | > 32 µg/mL | >80% | 2.4 µg/mL | >80% | > 32 µg/mL | 16 µg/mL | 
COc1ccc([N+]2=C3COCCN3C(O)(c3ccc(-c4ccccc4)cc3)C2)cc1 (centres undefined) |  |  |  |  |  |  |  |  |  |  |  |  |  |  |  | Activity ([1]; dose 32.0 µg/ml): inactive; Activity ([2]; dose 32.0 µg/ml): inactive; Activity ([3]; dose 32.0 µg/ml): inactive; Activity ([7]; dose 32.0 µg/ml): inactive; Activity ([9]; dose 32.0 µg/ml): inactive; Activity ([11]; dose 32.0 µg/ml): inactive; Activity [13, 16]: inactive
COc1ccc([N+]2=C3CCCCN3C(O)(c3ccc(-c4ccccc4)cc3)C2)cc1 (centres undefined) |  |  |  |  |  |  |  |  |  |  |  |  |  |  |  | Activity ([1]; dose 32.0 µg/ml): inactive; Activity ([2]; dose 32.0 µg/ml): inactive; Activity ([3]; dose 32.0 µg/ml): inactive; Activity ([7]; dose 32.0 µg/ml): inactive; Activity ([9]; dose 32.0 µg/ml): inactive; Activity ([11]; dose 32.0 µg/ml): inactive; Activity [13, 16]: inactive
OC1(c2ccc(-c3ccccc3)cc2)C[N+](c2ccc3c(c2)OCO3)=C2CCCCCN21.[Br-] (centres undefined) | >80% | >80% | >80% | > 32 µg/mL | > 32 µg/mL | > 32 µg/mL | >80% | > 32 µg/mL | >80% | > 32 µg/mL | >80% | 4.5 µg/mL | >80% | > 32 µg/mL | 32 µg/mL | 
CC/C(=C(\c1ccccc1)c1ccc(OCCN(C)C)cc1)c1ccccc1 [TAMOXIFEN] |  |  |  |  |  |  |  |  |  |  |  | 9 µg/mL (≈ 24.2 µM) |  |  |  | 
Cc1ccc(-[n+]2cc(-c3ccc(-c4ccccc4)cc3)n3c2CCCCC3)cc1.[Br-] | >80% | >80% | >80% | 8 µg/mL | > 32 µg/mL | > 32 µg/mL | >80% | 16 µg/mL | >80% | > 32 µg/mL | >80% | 2.1 µg/mL | >80% | > 32 µg/mL | 8 µg/mL | 
